Measured values: PubChem BioAssay (NCI)
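1) Cells in 96-well plates. 2) Compound, 48 h, 5 concentrations. 3) Linear interpolation between surrounding doses. 4) Unreached endpoint = highest concentration. TGI: total growth inhibition.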

Assays:
Assay in all cases: inhibition of tumour cell growth, NCI panel, 48 h
NCI-H23 lung = tested on: NCI-H23 lung
HT29 colon = tested on: HT29 colon
SK-MEL-5 melanoma = tested on: SK-MEL-5 melanoma
HCT-15 colon = tested on: HCT-15 colon
SNB-19 CNS = tested on: SNB-19 CNS
OVCAR-8 ovarian = tested on: OVCAR-8 ovarian
UO-31 renal = tested on: UO-31 renal
RPMI-8226 leukemia = tested on: RPMI-8226 leukemia
SN12C renal = tested on: SN12C renal
OVCAR-4 ovarian = tested on: OVCAR-4 ovarian
786-0 renal = tested on: 786-0 renal
HOP-62 NSCLC = tested on: HOP-62 NSCLC
TK-10 renal = tested on: TK-10 renal
CCRF-CEM leukemia = tested on: CCRF-CEM leukemia
HS 578T breast = tested on: HS 578T breast
SR leukemia = tested on: SR leukemia
EKVX NSCLC = tested on: EKVX NSCLC
OVCAR-5 ovarian = tested on: OVCAR-5 ovarian
OVCAR-3 ovarian = tested on: OVCAR-3 ovarian
SW-620 colon = tested on: SW-620 colon
SF-295 CNS = tested on: SF-295 CNS
UACC-62 melanoma = tested on: UACC-62 melanoma
MDA-MB-231 breast = tested on: MDA-MB-231 breast
NCI/ADR-RES ovarian = tested on: NCI/ADR-RES ovarian
MOLT-4 leukemia = tested on: MOLT-4 leukemia
A498 renal = tested on: A498 renal
SK-MEL-2 melanoma = tested on: SK-MEL-2 melanoma
KM12 colon = tested on: KM12 colon
K-562 leukemia = tested on: K-562 leukemia
CAKI-1 renal = tested on: CAKI-1 renal
UACC-257 melanoma = tested on: UACC-257 melanoma
PC-3 prostate = tested on: PC-3 prostate
RXF 393 renal = tested on: RXF 393 renal
NCI-H460 lung = tested on: NCI-H460 lung
NCI-H226 lung = tested on: NCI-H226 lung
T-47D breast = tested on: T-47D breast
BT-549 breast = tested on: BT-549 breast
SF-268 CNS = tested on: SF-268 CNS
MALME-3M melanoma = tested on: MALME-3M melanoma
HCT-116 colon = tested on: HCT-116 colon
COLO 205 colon = tested on: COLO 205 colon
SF-539 CNS = tested on: SF-539 CNS
A549 NSCLC = tested on: A549 NSCLC
SNB-75 CNS = tested on: SNB-75 CNS
LOX IMVI melanoma = tested on: LOX IMVI melanoma
HOP-92 NSCLC = tested on: HOP-92 NSCLC
DU-145 prostate = tested on: DU-145 prostate
HL-60(TB) leukemia = tested on: HL-60(TB) leukemia
IGROV1 ovarian = tested on: IGROV1 ovarian
NCI-H522 lung = tested on: NCI-H522 lung
MDA-MB-435 = tested on: MDA-MB-435
MCF7 breast = tested on: MCF7 breast
M14 melanoma = tested on: M14 melanoma
SK-OV-3 ovarian = tested on: SK-OV-3 ovarian
ACHN renal = tested on: ACHN renal
SK-MEL-28 melanoma = tested on: SK-MEL-28 melanoma
U251 CNS = tested on: U251 CNS
MDA-N = tested on: MDA-N
HCC-2998 colon = tested on: HCC-2998 colon

Measured: TGI

CCn1cc(C(=O)O)c(=O)c2cc(F)c(N3CCN(CN4C(=O)/C(=N\c5ncc(Cc6cc(OC)c(OC)c(OC)c6)c(N)n5)c5cc(Cl)ccc54)CC3)cc21
> 100 µM: all assays above
